Reference: patent US10350240B2, “Lanthanum carbonate hydroxide, lanthanum oxycarbonate and methods of their manufacture and use” (Spectrum Pharmaceuticals, Inc., priority 2010, dated 2019)

Key:
[1] = Laser particle size (Coulter LS230), aggregate D10/D50/D90 by volume; type: physicochemical; settings: Renazorb-014 (LDOC), second block
Source text: Aggregate size as described herein is either determined by scanning electron microscopy (SEM) or laser diffraction on a Coulter LS230. […] But these appear more aggregated.
Laser particle size data can be produced using, for example, a LS230 Laser Particle Size Analyzer manufactured by Coulter.
Average the runs using the LS230 software and have the software calculate the desired volume D results (i.e. for D1, D10, D50, D90, and D99).
The Refractive Index (RI) of a solid is required to perform an accurate laser PSD analysis for particles under 1 μm. The RI of the test materials were not listed in literature at the time this method was developed. […] Therefore an RI of 2.1 was chosen.

Bulk density = type: physicochemical; settings: Renazorb-014 (LDOC), second block
Protocol: Bulk density in accordance with the invention can be determined by standard methods.
Graduated Cylinder Tare Weight was determined to be 225 g. 75 grams of sample was sieved into the graduated cylinder. The Gross Weight was determined to be 299.4 g. The volume of this sample was measured to be 141 mL. Thus, the Bulk Density of the powder is: Bulk Density (g/cc)=(299.4−225)/141=74.4/141=0.5277 g/cc Rounding this value to two decimal places gives a final reported value of 0.53 g/cc. 9.2 RSD=(R1−R2)×100/R1 where: RSD=Relative Standard Deviation (%) R1 & R2=Result of individual repeat (g/cc) 9.3 SR=R×100/V where: SR=Standard Recovery (%) R=Result for Reference Standard (g/cc) V=Historical average for standard (g/cc)

[2] = Phosphate binding at buffered pH 4.5 in dissolution unit, ICP-OES (% reaction completion); settings: Renazorb-014 (LDOC), second block; 4.5 pH @30 min
Source text: For each run, both the Renazorb-013 (LCH) and the Renazorb-014 (LDOC) were characterized. Renazorb-013 is important to characterize because its features (particularly physical features such as BET-Surface-Area, Particle Size Distribution, crystalline phase by XRD, bulk density) strongly impact the same critical features of Renazorb-014. The typical characterization suite of Renazorb-013 and Renazorb-014 includes BET-Surface-Area (BET-SA), Particle Size Distribution (PSD), crystalline phase by XRD, bulk density, chloride content, lanthanum content, carbon content. On top of this Renazorb-014 is tested for phosphate binding performance (4.5 pH @30 min). Assays such as La, C, Cl are typically fairly consistent and not under scrutiny.
The following procedure may be used to determine the phosphate binding kinetics/capacity in solutions at a buffered pH=4.5 for lanthanum dioxycarbonate.
Briefly, a heated, acetate buffered acidic solution, adjusted to a known pH and containing a known amount of phosphate is stirred constantly throughout the test in a dissolution unit. To this stirred solution is added a known amount of lanthanum compound at time=0. […] All samples are diluted in the proper matrix and analyzed for phosphorus using an Inductively Coupled Plasma instrument equipped with an Optical Emission spectrophotometer detector (ICP-OES). […]

BET surface area = type: physicochemical; settings: Renazorb-014 (LDOC), second block
Source text: By “relatively greater” it is meant that if the processes of the '782 patent and those of the present invention were run under generally identical conditions but with, for example, ammonium carbonate or bicarbonate used instead of sodium carbonate, the surface area, as measured by BET or otherwise, of the LCH or lanthanum oxycarbonates of the present invention would be even higher than that resulting from the practice of the '782 patent. The ammonium carbonate process of the present invention should yield BET surface areas (SA) in the 1 to 100 m^2/g range for LCH. […] To this end, as used herein “relatively greater BET surface area” refers to the greater BET surface area of the LDOC compound of the present invention when compared to the respective compound in U.S. Pat. No. 7,588,782 when made using similar ingredients, and under similar conditions but using the process described in that patent. As noted above, both processes are capable of producing very fine particles/high surface area. Again without wishing to be bound by any particular theory of operation, it may be that the greater porosity of the materials resulting from the present invention may effectively increase the overall surface area (or more reactive surfaces) allowing for, inter alia, improved binding kinetics. This is predicated on the porosity of individual or primary particles, not aggregates. Thus, it is believed that the primary particles of the invention provide relatively greater porosity than would be measured for particles made in accordance with the '782 patent. […] Furthermore, “porosity” as used herein means cumulative adsorption pore volume determined using a static pressure surface area analyzer with nitrogen as the adsorbate and calculating the pore size by The Barrett, Joyner, and Halenda (BJH) method (Barrett E. P., Loyner L. G. and Halenda P. P., The determination of pore volume and area distributions in porous substances. I. Computations from nitrogen isotherms, J. Am. Chem. Soc. 73 (1951) pp. 373-380).
As contemplated herein, BET surface area of the lanthanum compounds disclosed herein may be determined as provided in U.S. Pat. No. 7,588,782.

For `O=C([O-])[O-].[La+3].[La+3].[O-2].[O-2]` [Batch 110508, lanthanum dioxycarbonate], the “D10 Sonicated SOP-QC-GMP-2402” value [1] was 6.6 um, the “D50 Sonicated SOP-QC-GMP-2402” value [1] was 50 um and the “D90 Sonicated SOP-QC-GMP-2402” value [1] was 151 um. For the same compound, the “Bulk Density” value (Bulk density) was 0.56 g/cc, the “Po4 binding @4.5 pH (rxn comp. %)” value [2] was 92% and the “Surface Area” value (BET surface area) was 16.7 m^2/g.
